According to US20240425464A1, “Substituted Monohydrazides as Potent Antifungal Agents” (University of Kentucky Research Foundation, priority 2023, published 2024):
Converted amounts (≈) assume the structure as drawn. Where two headings read alike, the source gives them in different places.

Columns and labels:
Format in all cases: cell-based, Candida albicans
[1] = system: C. albicans ATCC 10231 (strain A); assay: MIC determination by in vitro antifungal assay (CLSI broth dilution); conditions: strain A = C. albicans ATCC 10231, no visible growth, 48 h at 35° C.
Procedure: (§1) 10 mg/mL stock solutions of compounds 1a-9j were prepared in dimethyl sulfoxide (DMSO) and were stored at −20° C. in the dark. The antifungal agent amphotericin B (AmB) was purchased from VWR (Radnor PA, USA). AmB was dissolved in DMSO at a final concentration of 5 mg/mL and was stored at −20° C., protected from light. Candida albicans American Type Culture Collection (ATCC) 10231 (strain A), C. albicans ATCC 64124 (B), and C. albicans ATCC MYA-2876 (C) were obtained from Utah State University. C. albicans ATCC 90819 (D), C. albicans ATCC MYA-2310 (E), C. albicans ATCC MYA-1237 (F), C. albicans ATCC MYA-1003 (G), Candida glabrata ATCC 2001 (H), Candida krusei ATCC 6258 (I), Candida parapsilosis ATCC 22019 (J), Cryptococcus neoformans ATCC MYA-895 (M), Aspergillus terreus ATCC MYA-3633 (N), and Aspergillus flavus ATCC MYA-3631 (0) were obtained from the American Type Culture Collection (ATCC; Manassas, VA, USA). Aspergillus nidulans ATCC 38163 (P) was obtained from University of Kentucky. Clinically derived Aspergillus fumigatus NRRL 163 (Q), A. fumigatus NRRL 5109 (R), and A. fumigatus NRRL 6113 (S) were obtained from Northern Regional Research Laboratory (NRRL). Candida auris 384 (K), C. auris 390 (L), and fungal strains 381-400 (including 10 C. auris (AR Bank #381-390), 3 Candida duobushaemulonii (AR Bank #391, AR Bank #392, and AR Bank #394), 2 Candida haemulonii (AR Bank #393 and AR Bank #395), 1 Kodameae ohmeri (AR Bank #396), 1 C. krusei (AR Bank #397), 1 Candida lusitaniae (AR Bank #398), and 2 Saccharomyces cerevisiae strains (AR Bank #399 and AR Bank #400)) were part of a larger fungal library from the AR Bank maintained by the Centers for Disease Control and Prevention (CDC; Atlanta, GA, USA). Filamentous fungi and yeasts were cultivated at 35° C. in RPMI 1640 medium (with L-glutamine, without sodium bicarbonate, Sigma-Aldrich, St. Louis, MO) buffered to a pH of 7.0 with 0.165 M morpholinepropanesulfonic acid (MOPS) buffer (Sigma-Aldrich). For cytotoxicity assays, HepG2 and the mouse macrophage cell line J774A.1 were obtained from University of Kentucky. The human embryonic kidney cell line, HEK-293, was bought from the ATCC. Mammalian cells were grown in Dulbecco's Modified Eagle's Medium (DMEM) (from VWR) with 10% fetal bovine serum (FBS) (from VWR) and 1% Pen/Strep (from ATCC). Cell lines were cultured at 37° C. with 5% CO2 and passaged by trypsinization with 0.05% trypsin: 0.53 mM EDTA (from Sigma-Aldrich).
(§2) The MIC values of compounds 1a-9j against yeast cells (strains A-P and 381-400) were determined in 96-well plates as described in the CLSI documents M27-A3 and M38-A2 with minor modifications.^2 A single colony of freshly prepared yeast cells was used to inoculate 5 mL of yeast extract peptone dextrose (YPD) broth prior to incubation overnight with shaking at 200 rpm at 35° C. From the actively growing yeast culture, 100 µL were then transferred to 900 μL of RPMI 1640 medium and re-adjusted to achieve OD600 of 0.12 (˜1×10^6 CFU/mL). The cell suspension was further diluted to achieve 1:100 in RPMI 1640 medium. 100 μL of cells were added to the wells of a 96-well microtiter plates that contained 100 µL of the compound solution to obtain concentrations of 0.06-31.3 μg/mL of compounds 1a-9j or AmB prior to incubation for 48 h at 35° C. […]

[2] = system: C. albicans ATCC 64124 (B); assay: MIC determination by in vitro antifungal assay
Procedure: as §1, §2

[3] = system: C. albicans ATCC 90819 (D); assay: MIC determination by in vitro antifungal assay
Procedure: as §1, §2

[4] = system: C. albicans ATCC MYA-1003 (G); assay: MIC determination by in vitro antifungal assay; conditions: strain G = C. albicans ATCC MYA-1063(R) (footnote), MYA-1003 in text
Procedure: as §1, §2

[5] = system: C. albicans ATCC MYA-1237 (F); assay: MIC determination by in vitro antifungal assay; conditions: strain F = C. albicans ATCC MYA-1237(R)
Procedure: as §1, §2

[6] = system: C. albicans ATCC MYA-2310 (E); assay: MIC determination by in vitro antifungal assay; conditions: strain E = C. albicans ATCC MYA-2310
Procedure: as §1, §2

[7] = system: C. albicans ATCC MYA-2876 (C); assay: MIC determination by in vitro antifungal assay; conditions: strain C = C. albicans ATCC MYA-2876(S)
Procedure: as §1, §2

[8] = Candida albicans, ATCC10231, 48 h, read-out: MIC
[9] = Candida albicans, ATCC64124, strain B = C. albicans ATCC 64124, read-out: MIC
[10] = Candida albicans, ATCC90819, strain D = C. albicans ATCC 90819(R), read-out: MIC
[11] = Candida albicans, read-out: MIC
[12] = strain B = C. albicans ATCC 64124
[13] = strain D = C. albicans ATCC 90819(R)

Compound: O=C(NNc1cc(Cl)cc(Cl)c1)c1cnccn1 [Compound 9j]
- MIC [1, 8]: 0.49 µg/mL (≈ 1.73 µM)
- MIC [2, 9]: 3.9 µg/mL (≈ 13.8 µM)
- MIC [3, 10]: 1.95 µg/mL (≈ 6.89 µM)
- MIC [4, 11]: 3.9 µg/mL (≈ 13.8 µM)
- MIC [5, 11]: 1.95 µg/mL (≈ 6.89 µM)
- MIC [6, 11]: 7.8 µg/mL (≈ 27.6 µM)
- MIC [7, 11]: 3.9 µg/mL (≈ 13.8 µM)

Compound: O=C(NNc1ccc(F)cc1F)c1nc(F)ccc1F [Compound 8g]
- MIC [1, 8]: 0.98 µg/mL (≈ 3.44 µM)
- MIC [2, 9]: 1.95 µg/mL (≈ 6.84 µM)
- MIC [3, 10]: 3.9 µg/mL (≈ 13.7 µM)
- MIC [4, 11]: 0.98 µg/mL (≈ 3.44 µM)
- MIC [5, 11]: 1.95 µg/mL (≈ 6.84 µM)
- MIC [6, 11]: 1.95 µg/mL (≈ 6.84 µM)
- MIC [7, 11]: 1.95 µg/mL (≈ 6.84 µM)

Compound: COc1ccc(NNC(=O)c2ccc(F)cn2)cc1 [Compound 3f]
- MIC [1]: 0.24 μg/mL^−1
- MIC [2, 12]: 0.98 μg/mL^−1
- MIC [3, 13]: 0.98 μg/mL^−1
- MIC [4]: 0.49 μg/mL^−1
- MIC [5]: 0.49 μg/mL^−1
- MIC [6]: 0.98 μg/mL^−1
- MIC [7]: 0.98 μg/mL^−1

Compound: O=C(NNc1ccc(F)cc1F)c1ccc(F)cn1 [Compound 3g]
- MIC [1, 8]: 0.49 µg/mL (≈ 1.83 µM)
- MIC [2, 9]: 1.95 µg/mL (≈ 7.3 µM)
- MIC [3, 10]: 1.95 µg/mL (≈ 7.3 µM)
- MIC [4, 11]: 0.98 µg/mL (≈ 3.67 µM)
- MIC [5, 11]: 1.95 µg/mL (≈ 7.3 µM)
- MIC [6, 11]: 1.95 µg/mL (≈ 7.3 µM)
- MIC [7, 11]: 1.95 µg/mL (≈ 7.3 µM)

Compound: O=C(NNc1ccc(F)cc1F)c1ccc(F)cc1F [Compound 1g]
- MIC [1, 8]: 1.95 µg/mL (≈ 6.86 µM)
- MIC [2, 9]: 1.95 µg/mL (≈ 6.86 µM)
- MIC [3, 10]: 3.9 µg/mL (≈ 13.7 µM)
- MIC [4, 11]: 0.98 µg/mL (≈ 3.45 µM)
- MIC [5, 11]: 1.95 µg/mL (≈ 6.86 µM)
- MIC [6, 11]: > 31.3 µg/mL
- MIC [7, 11]: 3.9 µg/mL (≈ 13.7 µM)

Compound: O=C(NNc1ccc(Cl)cc1)c1ccccn1 [Compound 2e]
- MIC [1]: 0.12 μg/mL^−1
- MIC [2, 12]: 0.98 μg/mL^−1
- MIC [3, 13]: 0.24 μg/mL^−1
- MIC [4]: 0.98 μg/mL^−1
- MIC [5]: 0.98 μg/mL^−1
- MIC [6]: 0.98 μg/mL^−1
- MIC [7]: 1.95 μg/mL^−1

Compound: O=C(NNc1cc(F)cc(F)c1)c1cnccn1 [Compound 9i]
- MIC [1, 8]: 0.24 µg/mL (≈ 0.959 µM)
- MIC [2, 9]: 3.9 µg/mL (≈ 15.6 µM)
- MIC [3, 10]: 3.9 µg/mL (≈ 15.6 µM)
- MIC [4, 11]: 1.95 µg/mL (≈ 7.79 µM)
- MIC [5, 11]: 1.95 µg/mL (≈ 7.79 µM)
- MIC [6, 11]: 15.6 µg/mL (≈ 62.3 µM)
- MIC [7, 11]: 7.8 µg/mL (≈ 31.2 µM)

Compound: O=C(NNc1ccc(F)cc1F)c1cccc(F)n1 [Compound 5g]
- MIC [1, 8]: 0.98 µg/mL (≈ 3.67 µM)
- MIC [2, 9]: 1.95 µg/mL (≈ 7.3 µM)
- MIC [3, 10]: 3.9 µg/mL (≈ 14.6 µM)
- MIC [4, 11]: 0.98 µg/mL (≈ 3.67 µM)
- MIC [5, 11]: 1.95 µg/mL (≈ 7.3 µM)
- MIC [6, 11]: 1.95 µg/mL (≈ 7.3 µM)
- MIC [7, 11]: 1.95 µg/mL (≈ 7.3 µM)

Compound: O=C(NNc1cccc(Cl)c1)c1ccccn1 [Compound 2b]
- MIC [1]: 0.12 μg/mL^−1
- MIC [2, 12]: 0.98 μg/mL^−1
- MIC [3, 13]: 0.49 μg/mL^−1
- MIC [4]: 0.49 μg/mL^−1
- MIC [5]: 0.98 μg/mL^−1
- MIC [6]: 0.98 μg/mL^−1
- MIC [7]: 0.98 μg/mL^−1

Compound: COc1cccc(NNC(=O)c2nc(F)ccc2F)c1 [Compound 8c]
- MIC [1, 8]: 0.98 µg/mL (≈ 3.51 µM)
- MIC [2, 9]: 1.95 µg/mL (≈ 6.98 µM)
- MIC [3, 10]: 7.8 µg/mL (≈ 27.9 µM)
- MIC [4, 11]: 1.95 µg/mL (≈ 6.98 µM)
- MIC [5, 11]: 1.95 µg/mL (≈ 6.98 µM)
- MIC [6, 11]: 3.9 µg/mL (≈ 14 µM)
- MIC [7, 11]: 3.9 µg/mL (≈ 14 µM)

Compound: O=C(NNc1ccc(F)cc1)c1ccc(F)cn1 [Compound 3d]
- MIC [1]: 0.49 μg/mL^−1
- MIC [2, 12]: 1.95 μg/mL^−1
- MIC [3, 13]: 1.95 μg/mL^−1
- MIC [4]: 1.95 μg/mL^−1
- MIC [5]: 1.95 μg/mL^−1
- MIC [6]: 3.9 μg/mL^−1
- MIC [7]: 3.9 μg/mL^−1
